{"source": "patent US20100317850A1", "about": "(priority 2008, published 2010)", "note": "pIC50: −log10 of the molar value.", "data": [{"tested_on": "Aβ42 production", "test": "Quantification of Aβ peptide in culture of neurons from rat fetus brain (Aβ ELISA)", "assay_type": "cell-based", "details": "Neuron, 72 h; rat primary neuronal culture (cerebral cortex, embryonic day 18 Wistar rats); medium collected three days after addition of the compound; Aβx-42 ELISA; read-out: Aβ42 production reducing effect IC50", "how_it_was_run": "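Primary cortical neurons from embryonic day 18 Wistar rats were cultured 4 days, then exposed to compound in Neurobasal/B27 without 2-ME, final DMSO ≤1%. After three days, medium was collected and Aβx-42 measured undiluted by sandwich ELISA.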", "values": [{"smiles": "NC1=N[C@@]2(c3cc(NC(=O)c4ccc(OC(F)F)cn4)ccc3F)CCO[C@H](CF)[C@H]2CS1", "note": "(relative stereo) [Example 147, N-[3-((4aS*,5S*,8aS*)-2-amino-5-fluoromethyl-4a,5,7,8-tetrahydro-4H-6-oxa-3-thia-1-azanaphthalen-8a-yl)-4-fluorophenyl]-5-difluoromethoxypyridine-2-carboxamide]", "pIC50": 7.92}, {"smiles": "NC1=N[C@@]2(c3cc(NC(=O)c4ccc(Cl)cn4)ccc3F)CCO[C@H](CF)[C@H]2CS1", "note": "(relative stereo) [Example 148, N-[3-((4aS*,5S*,8aS*)-2-amino-5-fluoromethyl-4a,5,7,8-tetrahydro-4H-6-oxa-3-thia-1-azanaphthalen-8a-yl)-4-fluorophenyl]-5-chloropyridine-2-carboxamide]", "pIC50": 8.05}, {"smiles": "NC1=N[C@@]2(c3cc(NC(=O)c4ccc(C(F)(F)F)cn4)ccc3F)COC[C@H]2CS1", "note": "(relative stereo) [Example 165, N-[3-((4aS*,7aS*)-2-amino-4a,5-dihydro-4H-furo[3,4-d][1,3]thiazin-7a-yl)-4-fluorophenyl]-5-trifluoromethylpyridine-2-carboxamide]", "pIC50": 7.92}, {"smiles": "NC1=N[C@@]2(c3cc(NC(=O)c4ccc(Br)cn4)ccc3F)COC[C@H]2CS1", "note": "(relative stereo) [Example 166, N-[3-((4aS*,7aS*)-2-amino-4a,5-dihydro-4H-furo[3,4-d][1,3]thiazin-7a-yl)-4-fluorophenyl]-5-bromopyridine-2-carboxamide]", "pIC50": 8.40}, {"smiles": "NC1=N[C@@]2(c3cc(NC(=O)c4ccc(OC(F)F)cn4)ccc3F)COC[C@H]2CS1", "note": "(relative stereo) [Example 167, N-[3-((4aS*,7aS*)-2-amino-4a,5-dihydro-4H-furo[3,4-d][1,3]thiazin-7a-yl)-4-fluorophenyl]-5-difluoromethoxypyridine-2-carboxamide]", "pIC50": 8.22}, {"smiles": "CO[C@@H]1CC[C@H]2CSC(N)=N[C@@]2(c2cc(NC(=O)c3ccc(C#N)cn3)ccc2F)C1", "note": "(relative stereo) [Example 202, N-[3-((4aR*,7R*,8aS*)-2-amino-7-methoxy-4,4a,5,6,7,8-hexahydrobenzo[d][1,3]thiazin-8a-yl)-4-fluorophenyl]-5-cyanopyridine-2-carboxamide]", "pIC50": 8.52}, {"smiles": "CO[C@H]1CC[C@]2(c3cc(NC(=O)c4ccc(C#N)cn4)ccc3F)N=C(N)SC[C@@H]2C1", "note": "(relative stereo) [Example 204, N-[3-((4aR*,6S*,8aS*)-2-amino-6-methoxy-4,4a,5,6,7,8-hexahydrobenzo[d][1,3]thiazin-8a-yl)-4-fluorophenyl]-5-cyanopyridine-2-carboxamide]", "pIC50": 7.64}, {"smiles": "CO[C@@H]1CC[C@]2(c3cc(NC(=O)c4ccc(C#N)cn4)ccc3F)N=C(N)SC[C@@H]2C1", "note": "(relative stereo) [Example 206, N-[3-((4aR*,6R*,8aS*)-2-amino-6-methoxy-4,4a,5,6,7,8-hexahydrobenzo[d][1,3]thiazin-8a-yl)-4-fluorophenyl]-5-cyanopyridine-2-carboxamide]", "pIC50": 8.70}, {"smiles": "CO[C@@H]1CC[C@]2(c3cc(NC(=O)c4cnc(C(F)F)cn4)ccc3F)N=C(N)SC[C@@H]2C1", "note": "(relative stereo) [Example 207, N-[3-((4aR*,6R*,8aS*)-2-amino-6-methoxy-4,4a,5,6,7,8-hexahydrobenzo[d][1,3]thiazin-8a-yl)-4-fluorophenyl]-5-difluoromethylpyrazine-2-carboxamide]", "pIC50": 8.52}, {"smiles": "N#Cc1ccc(C(=O)Nc2ccc(F)c([C@]34CC[C@H](F)C[C@H]3CSC(N)=N4)c2)nc1", "note": "(relative stereo) [Example 215, N-[3-((4aR*,6S*,8aS*)-2-amino-6-fluoro-4,4a,5,5,6,7,8-hexahydrobenzo[d][1,3]thiazin-8a-yl)-4-fluorophenyl]-5-cyanopyridine-2-carboxamide]", "pIC50": 8.00}, {"smiles": "CO[C@H]1C[C@H]2CSC(N)=N[C@@]2(c2cc(-c3cccnc3F)ccc2F)C1", "note": "(relative stereo) [Example 243, (±)-(4aR*,6S*,7aS*)-7a-[2-Fluoro-5-(2-fluoro-pyridin-3-yl)phenyl-6-methoxy-4,4a,5,6,7,7a-hexahydrocyclopenta[d][1,3]thiazin-2-ylamine]", "pIC50": 7.16}, {"smiles": "NC1=N[C@@]2(c3cc(NC(=O)c4ccc(Cl)cn4)ccc3F)CCCC[C@H]2CS1", "note": "(single isomer, unassigned) [Example 3, (+)-N-[3-((4aR.*,8aS*)-2-amino-4,4a,5,6,7,8-hexahydrobenzo[d][1,3]thiazin-8a-yl)-4-fluorophenyl]-5-chloropyridine-2-carboxamide]", "pIC50": 8.05}, {"smiles": "NC1=N[C@@]2(c3cc(NC(=O)c4cnc(OC(F)F)cn4)ccc3F)CCC[C@H]2CS1", "note": "(single isomer, unassigned) [Example 20, N-[3-((4aR*,7aS*)-2-amino-4a,5,6,7-tetrahydro-4,1-cyclopenta[d][1,3]thiazin-7a-yl-4-fluorophenyl]-5-difluoromethoxypyrazine-2-carboxamide]", "pIC50": 8.30}, {"smiles": "N#Cc1ccc(C(=O)Nc2ccc(F)c([C@]34CCC[C@H]3CSC(N)=N4)c2)nc1", "note": "(single isomer, unassigned) [Example 22, N-[3-((4aR*,7aS*)-2-amino-4a,5,6,7-tetrahydro-4H-cyclopenta[d][1,3]thiazin-7a-yl)-4-fluorophenyl]-5-cyanopyridine-2-carboxamide]", "pIC50": 8.30}, {"smiles": "NC1=N[C@@]2(c3cc(NC(=O)c4cnc(OCF)cn4)ccc3F)COC[C@H]2CS1", "note": "(single isomer, unassigned) [Example 27, N-[3-((7S*,7aS*)-2-amino-4a,5-dihydro-4H-furo[3,4-d][1,3]thiazin-7a-yl)-4-fluorophenyl]-5-fluoromethoxypyrazine-2-carboxamide]", "pIC50": 7.96}, {"smiles": "N#Cc1ccc(C(=O)Nc2ccc(F)c([C@]34CCOC[C@H]3CSC(N)=N4)c2)nc1", "note": "(single isomer, unassigned) [Example 28, N-[3-((4aS*,8aS*)-2-amino-4a,7,8-tetrahydro-4H-6-oxa-3-thia-1-azanaphthalen-8a-yl)-4-fluorophenyl]-5-cyanopyridine-2-carboxamide]", "pIC50": 7.92}, {"smiles": "NC1=N[C@@]2(c3cc(NC(=O)c4cnc(Cl)cn4)ccc3F)CCCC[C@H]2CS1", "note": "(single isomer, unassigned) [Example 104, N-[3-((4aR*,8aS*)-2-amino-4,4a,5,6,7,8-hexahydrobenzo[d][1,3]thiazin-8a-yl)-4-fluorophenyl]-5-chloropyrazine-2-carboxamide]", "pIC50": 6.67}, {"smiles": "NC1=N[C@@]2(c3cc(NC(=O)c4ncc(F)cc4F)ccc3F)CCCC[C@H]2CS1", "note": "(single isomer, unassigned) [Example 105, N-[3-((4aR*,8aS*)-2-amino-4,4a,5,6,7,8-hexahydrobenzo[d][1,3]thiazin-8a-yl)-4-fluorophenyl]-3,5-difluoropyridine-2-carboxamide]", "pIC50": 6.92}, {"smiles": "NC1=N[C@@]2(c3cc(NC(=O)c4ccc(C(F)(F)F)cn4)ccc3F)CCCC[C@H]2CS1", "note": "(single isomer, unassigned) [Example 106, N-[3-((4aR*,8aS*)-2-amino-4,4a,5,6,7,8-hexahydrobenzo[d][1,3]thiazin-8a-yl)-4-fluorophenyl]-5-trifluoromethylpyridine-2-carboxamide]", "pIC50": 7.06}, {"smiles": "COc1cnc(C(=O)Nc2ccc(F)c([C@]34CCCC[C@H]3CSC(N)=N4)c2)cn1", "note": "(single isomer, unassigned) [Example 107, N-[3-((4aR*,8aS*)-2-amino-4,4a,5,6,7,8-hexahydrobenzo[d][1,3]thiazin-8a-yl)-4-fluorophenyl]-5-methoxypyrazine-2-carboxamide]", "pIC50": 7.77}, {"smiles": "NC1=N[C@@]2(c3cc(NC(=O)c4ccc(C#CC5CC5)cn4)ccc3F)CCC[C@H]2CS1", "note": "(single isomer, unassigned) [Example 132, N-[3-((4aR*,7aS*)-2-amino-4a,5,6,7-tetrahydro-4H-cyclopenta[d][1,3]thiazin-7a-yl)-4-fluorophenyl]-5-cyclopropylethynyl-pyridine-2-carboxamide]", "pIC50": 7.36}, {"smiles": "NC1=N[C@@]2(c3cc(NC(=O)c4ccc(-c5nccs5)cn4)ccc3F)CCC[C@H]2CS1", "note": "(single isomer, unassigned) [Example 133, N-[3-((4aR*,7aS*)-2-amino-4a,5,6,7-tetrahydro-4H-cyclopenta[d][1,3]thiazin-7a-yl)-4-fluorophenyl]-5-thiazol-2-yl-pyridine-2-carboxamide]", "pIC50": 7.20}, {"smiles": "CSc1cnc(C(=O)Nc2ccc(F)c([C@]34CCC[C@H]3CSC(N)=N4)c2)cn1", "note": "(single isomer, unassigned) [Example 135, N-[3-((4aR*,7aS*)-2-amino-4a,5,6,7-tetrahydro-4H-cyclopenta[d][1,3]thiazin-7a-yl)-4-fluorophenyl]-5-methylsulfanyl-pyrazine-2-carboxamide]", "pIC50": 7.82}, {"smiles": "COCC#Cc1ccc(C(=O)Nc2ccc(F)c([C@]34CCC[C@H]3CSC(N)=N4)c2)nc1", "note": "(single isomer, unassigned) [Example 136, N-[3-((4aR*,7aS*)-2-amino-4a,5,6,7-tetrahydro-4H-cyclopenta[d][1,3]thiazin-7a-yl)-4-fluorophenyl]-5-(3-methoxypropyn-1-yl)-pyridine-2-carboxamide]", "pIC50": 7.60}, {"smiles": "NC1=N[C@@]2(c3cc(NC(=O)c4nccs4)ccc3F)CCC[C@H]2CS1", "note": "(single isomer, unassigned) [Example 137, N-[3-((4aR*,7aS*)-2-amino-4a,5,6,7-tetrahydro-4H-cyclopenta[d][1,3]thiazin-7a-yl)-4-fluorophenyl]-thiazole-2-carboxamide]", "pIC50": 7.33}, {"smiles": "NC1=N[C@@]2(c3cc(NC(=O)c4ccc(C(F)F)cn4)ccc3F)CCC[C@H]2CS1", "note": "(single isomer, unassigned) [Example 141, N-[3-((4aR*,7aS*)-2-amino-4a,5,6,7-tetrahydro-4H-cyclopenta[d][1,3]thiazin-7a-yl)-4-fluorophenyl]-5-difluoromethylpyridine-2-carboxamide]", "pIC50": 7.80}]}]}
